Data: US12648928B2, “Intervention strategy for prevention or treatment of diabetes mellitus, autoimmune disease, inflammatory disease or cardiovascular disease” (ACADEMISCH MEDISCH CENTRUM, priority 2020, dated 2026)

Columns and labels:
INS1E beta cells = assay: Seahorse XF intracellular metabolism, INS1E beta cells; format: cell-based, rat; settings: INS1E beta cells; compared with 6-BT
Text: Lastly, it was investigated whether 6-BT may influence the mitochondrial metabolism of beta cells, which rely on ATP and mitochondrial metabolite production for insulin exocytosis. […] Intracellular metabolism measured using a Seahorse XF Analyzer Uchimura T., The Innate Immune Sensor NLRC3 Acts as a Rheostat that Fine-Tunes T Cell Responses in Infection and Autoimmunity.

murine CD4+ T cells = assay: In vitro CD4+ T cell activation assay (anti-CD3/anti-CD28); format: cell-based; settings: for Th1 responses in CD4 T cells: anti-CD3 & anti-CD28 mAbs, 24 hours (FIG. 11)
Procedure: Primary CD4+ T cells were freshly isolated by negative selection from spleens of C57/B16 mice (N=3 per experiment). Briefly, spleens were smashed in a culture dish and passed twice through a strainer (70 μm and 40 μm, respectively) to obtain a single-cell suspension.
Using the negative selection (CD4+ T Cell Isolation kit, Miltenyi Biotec, #130-10-454). Non-CD4 T cells were depleted by retaining them in LS magnetizing column (Miltenyi Biotec).
Isolated CD4 T cells were cultured in 96-well plates (1×10^5 per well) in RPMI1640 medium supplemented with 10% fetal bovine serum, 100 U/ml penicillin, 100 μg/ml streptomycin, 2 mM L-glutamine. Treatment with the metabolites 6-BT (1/10 μM), LysoPC(20:0) (10/50 μM) or MA-GPC (10/50/100 μM) and activation with 2.5 μg/ml soluble anti-CD3 (145-2C11, eBioscience) and 1 μg/ml soluble anti-CD28 (37.51, eBioscience) antibodies started immediately after seeding in 200 i/well complete RPMI1640 media for a 24-hour period, at the end of which supernatant was harvested and stored at −80° C.
(§1) Specific ELISAs (R&D Systems) were utilized to measure the concentration of TNFα, IFNβ, and IFNγ in cell supernatant of murine monocytes, macrophages ad T cells, respectively, according to the manufacturer's instructions. The concentration of insulin after 24-hour treatment with metabolites or after GSIS were determined using Rat insulin ELISA (Mercodia) according to the manufacturer's instructions. GSIS was calculated by subtracting the concentration of insulin at 1 mM glucose to the insulin rate at 22 mM glucose.
Particularly in the context of autoimmune diabetes, the activity of T cells is driving disease onset and progression. […] To mimic antigen presentation, murine CD4 T cells (isolated from spleens; Uchimura T., The Innate Immune Sensor NLRC3 Acts as a Rheostat that Fine-Tunes T Cell Responses in Infection and Autoimmunity. Immunity 2019) were activated by monoclonal antibodies against CD3 and CD28 (2.5 and 1 μg/ml, respectively).

[1] = test system: murine bone marrow-isolated monocytes or bone marrow-derived macrophages; assay: In vitro stimulation of murine monocytes / bone marrow-derived macrophages, cytokine ELISA; format: cell-based; settings: for cytokine secretion by monocytes: murine monocytes CD11b+ activated with LPS (10 μg/ml) for 24 hours, TLR4 stimulation (FIG. 8)
Procedure: Naïve bone marrow monocytes were isolated from BM cells. Briefly, hind legs were removed from 3 mice, cleaned from surrounding muscles. The femur and tibia bones were trimmed at their extremities, the BM content was flushed out with cold PBS using a 10 ml syringe and a 25G needle and filtered through a 40 μm strainer. Red blood cells (RBC) were lysed with 1× RBC lysis buffer (Biolegend) for 5 min. on ice. CD11b+ monocytes were further purified by positive selection using a cocktail of CD11 b magnetic beads (Miltenyi Biotec, #130-049-601) and magnetizing MS columns (Miltenyi Biote) according to the manufacturer's instructions. Subsequently, monocytes were seeded in F-bottom 96-well plates at 1×10^5 cells per well in RPMI1640 supplemented with 10% heat-inactivated fetal bovine serum, penicillin (100 U/ml), streptomycin (100 μg/ml), L-glutamine (2 mM) […]. Monocytes were activated with 10 μg/ml LPS (Sigma-Aldrich) and subjected to treatment with 6-BT (10/100 μM), LysoPC(20:0) (10/50 μM), MA-GPC (10/50/100 μM), or appropriate vehicle. Cells were kept in a final volume of 200 μl/well for 24 hours, after which supernatant was harvested and stored at −80° C.
Bone marrow-derived macrophages (BMDM) and DC (BMDC) were obtained by differentiating freshly isolated BM cells from femur and tibia bones (as above described) of C57/B16 mice (N=3 per experiment). For BMDM, BM cells were seeded at 3×10^6 cells per 10 cm dish and cultured for 7 days in 12 ml RPMI1640 medium with 20% fetal bovine serum, 30% L-929 cell conditioned media, as source of murine macrophage colony-stimulating factor (M-CSF). For BMDC, BM cells were seeded at 0.5×10^6/ml cells in 25 ml in 10 cm dishes and cultured for 7 days in presence of GM-CSF in 5% FBS-RPMI1640 medium. After differentiation, BMDM/DCs were harvested, counted and seeded at a density of 1×10^5 cells per well in a F-bottom 96-well plate and left to adhere for 20 hours before experiments were performed. Macrophages were activated with 10 μg/ml polyinosinic-polycytidylic acid poly(I.C) (InvivoGen) for 24 hours in presence or not of 6-BT (10/100 μM), LysoPC(20:0) (10/50 μM), or MA-GPC (10/50/100 μM) in a final volume of 200 μl/well. At the end of the assay, supernatant was harvested and stored at −80° C.
as §1
Here, murine bone marrow-isolated monocytes (Christ A., Western Diet Triggers NLRP3-Dependent Innate Immune Reprogramming. Cell 2018) or bone marrow-derived macrophages (Swanson K V, A noncanonical function of cGAMP in inflammasome priming and activation. JEM 2017) were exposed for 24 hours to the indicated concentrations of 6-BT (10-100 μM) in presence or not of 10 μg/ml LPS, 10 μg/ml P3C or 10 μg/ml poly(I.C).

NF-κB = NF-κB reporter macrophage luciferase assay (RAW264.7); format: cell-based, murine; settings: RAW264.7 3x-κB-luc; LPS 10/100 ng/ml 2 hours; different doses (FIG. 7)
Procedure: NF-κB signaling activation was assessed by luciferase activity assay. RAW264.7 cells stably transfected with the 3×-κB-luc plasmid (DNA construct containing three NF-κB sites from the Ig κ light chain promoter coupled to the gene encoding firefly luciferase) were grown in DMEM medium supplemented with 10% heat-inactivated fetal bovine serum, penicillin (100 U/ml), streptomycin (100 μg/ml), L-glutamine (2 mM). Cells were seeded in F-bottom 96-well […] metabolites at different concentrations (6-BT 0,1-100 μM, LysoPC(20:0) 1-10 μM, 16:0-18:2 PE 1-50 μM, MA-GPC 1-100 μM). Afterwards, cells were lysed with 25 μl/well 1×passive lysis buffer and firefly luciferase activity was measured by LUCIFERASE® Assay System (Promega, E1500) on a GLOMAX @-Multi Detection System (Promega).

SMILES	effect on intracellular metabolism (INS1E beta cells)	production of the Th1 cytokine IFNgamma (murine CD4+ T cells; CD4 T cells from spleens, anti-CD3 2.5 μg/ml and anti-CD28 1 μg/ml (FIGS. 16, 20))	cytokine secretion by monocytes [1]	NFκB pathway activation in macrophages (NF-κB)	Th1 responses in CD4 T cells (murine CD4+ T cells)	type 1 IFN secretion ([1]; PolyI:C for 24 hours, TLR3 stimulation (FIG. 9))
N[C@@H](Cc1c[nH]c2ccccc12)C(=O)O [tryptophan, reference compound]	exerted a different effect than 6-BT	but not tryptophan, exerted inhibitory effect				
CCCCC/C=C\C/C=C\C/C=C\C/C=C\CCCC(=O)OC[C@@H](O)COP(=O)([O-])OCC[N+](C)(C)C [A-GPC, 1-arachidonoyl-glycero-phosphocholine]			halt cytokine secretion	can inhibit NFκB pathway activation	dampen Th1 responses	
CCCCC/C=C\C/C=C\C/C=C\C/C=C\CCCC(=O)O[C@H](COC(=O)CCCCCCCCCCCCC)COP(=O)([O-])OCC[N+](C)(C)C [MA-GPC, 1-myristoyl-2-arachidonoyl-glycero-phosphocholine]			halt cytokine secretion	can inhibit NFκB pathway activation	hampers immune responses	impair type 1 IFN secretion
